Assay results taken from article PMC7906907, “Targeting STAT3 by a small molecule suppresses pancreatic cancer progression” (Oncogene, 2021).

How the values were obtained:
[1] = tested on: STAT3 Tyr705 phosphorylation; assay: Western blot of STAT3 activation in pancreatic cancer cells; type: cell-based
Procedure: Fig. 2 N4 inhibits STAT3 activation in pancreatic cancer cells. A PANC-1, CAPAN-2, and BXPC-3 cells were treated with the indicated concentrations of N4 for 24 h. Then, p-STAT3 (Y705), p-STAT3 (S727), and STAT3 were detected by western blot assays with glyceraldehyde 3-phosphate dehydrogenase (GAPDH) used as the loading control. B Pancreatic cancer cells were starved in a medium lacking fetal bovine serum (FBS; basic medium) for 24 h, and then pretreated with N4 in basic medium for 24 h. Then, stimulated with IL-6 (20 ng/mL) for 30 min and lysed for western blot analysis using the indicated antibodies. C Expression levels of STAT3 downstream genes were detected by western blot following treatment of PANC-1 and CAPAN-2 cells with N4. D PANC-1 cells were seeded and allowed to attach, and then pretreated with 2 μM of N4 in FBS-free medium for 24 h. The cells were stimulated for 30 min using IL-6 (20 ng/mL). The STAT3 antibody (green) and 4, 6-diamidino-2-phenylindole (DAPI) (blue) was used for staining and STAT3 and the nucleus, respectively. The samples were photographed and analyzed. The scale bar represents 20 μm. E After 24 h treatment with 2 μM N4, PANC-1 cells were stimulated with IL-6 (20 ng/mL) for 30 min, and the cytoplasmic and nuclear extractions were analyzed by western blot. p-STAT3 (Y705) was used to detect STAT3, and GAPDH and H3 were used as the cytoplasm and nucleus internal control, respectively.
Western blotting was performed as previously described. Briefly, cells were treated with indicated compounds and then lysed by boiling. […]

[2] = tested on: STAT3; assay: STAT3-response dual luciferase reporter assay; type: cell-based
Procedure: Fig. 1 N4 inhibits STAT3 dimerization and transcription in vitro. A Purified STAT3 protein was incubated with labeled phosphopeptide, 5-carboxyfluorescein-GpYLPQTV-NH2 for 1 h at 37 °C. FP signals were measured, and the data were analyzed using Graph Pad 7.0 software. B Chemical structure of N4. C Different concentrations of N4 were pre-incubated with recombined STAT3 protein for 1 h, then 10 nM of labeled peptide was added for 1 h. The IC50 was calculated using Graph Pad 7.0. D, E, F STAT3 specific luciferase reporter plasmid was transiently transfected into 293T cells. After 24 h transfection, IL-6 (20 ng/mL), OSM (10 ng/mL), and V-SRC expression plasmid (200 ng) was used to activate STAT3 luciferase activity, N4 was added at the indicated concentrations. Renilla luciferase activities were used as an internal reference (n = 2 per group). The values are expressed as mean ± SD and the bars indicate statistically significant differences (t test), *P < 0.05; **P < 0.01; ***P < 0.001.
Dual luciferase assay was performed as previously described. […] Renilla and firefly luciferase activities were determined by luminometry using the Dual Luciferase Reporter Assay System (Promega). The ratio was calculated.
Supplementary Figure 5. […] The values are expressed as mean ± SD and the bars indicate statistically significant differences (t-test), *P < 0.05; **P < 0.01; ***P < 0.001. […]

[3] = tested on: PANC-1; assay: PANC-1 subcutaneous tumor growth xenograft model; type: in vivo
Procedure: Fig. 5 N4 suppresses pancreatic cancer growth in vivo. PANC-1 cells were injected into the right flank of BALB/c-nude mice. After the volume of tumor nodules reached 200–300 mm^3, the mice were randomly assigned to the indicated groups and were injected intraperitoneally daily with vehicle (n = 7), 40 mg/kg/d C188-9 (n = 7), 10 mg/kg/d N4 (n = 8), or 20 mg/kg/d N4 (n = 8). The mice were sacrificed after treatment for 20 days and the tumors from each group of mice were excised. A, B Tumor volumes were measured every 4 days. Tumor volumes were calculated by the formula: length × width^2 × 0.52. […] C After treatment for 20 days, the tumors from each group of mice were excised and photographed. D After the experiments, all the tumors were weighted. […] E Tumor samples were collected, and protein was extracted for western blot analysis. p-STAT3 (Y705), p-STAT3(S727), STAT3, and CMYC were detected, with GAPDH used as the loading control. Immunohistochemistry examinations were performed in the different treatment groups, p-STAT3 (Y705), Ki-67 and cleaved caspase3 were quantified (F) and photographed (G). The scale bar denotes 20 μm. Data are expressed as mean ± SD, **P < 0.01, ****P < 0.0001 and n.s. not significant by one-way ANOVA.
BALB/c-nude, male, 6–8-week-old mice were obtained from the Animal Center of East China Normal University. All animal experimental protocols were approved by the Animal Investigation Committee of the Institute of Biomedical Sciences, East China Normal University. PANC-1 cells (5 × 10^6) were suspended in PBS with 50% Matrigel and injected into the right flank of the mice. Treatment began after the tumor nodules reached 150–250 mm^3 in volume. The tumor-bearing mice were randomly assigned to four groups and treated with the indicated compounds. The tumor volume and mice body weight were measured after 4 days. The tumor volume (V) was calculated as length × width × width × 0.52. At the end of experiment, the mice were sacrificed. Solid tumors were removed and processed for immunohistochemistry analysis.

[4] = PANC-1, CAPAN-2, BXPC-3 cells, 24 h

COc1cc2c(cc1C(=O)Nc1cccc3cccnc13)CCC1C(C)(C)C(=O)C(C#N)=C[C@]21C (some centres unmarked) [N4]
STAT3 Tyr705 phosphorylation [1, 4]: selectively blocked | Ser-727 phosphorylation and STAT3 protein expression [1, 4]: no obvious inhibition | SHP2 (PTPase), p-STAT1, p-STAT5, p-extracellular signal-regulated kinase, and p-AKT levels ([1]; western blots): no obvious influence | STAT3-dependent luciferase reporter activity ([2]; 293T cells, IL-6, OSM or V-SRC induced): suppressed | STAT3-response luciferase activities ([2]; PANC-1 and BXPC-3 cells, with or without IL-6 stimulation): efficiently inhibited | bodyweight of mice ([3]; 10 and 20 mg/kg/d): did not affect | pancreatic cancer growth (tumor volume) ([3]; 10 and 20 mg/kg/d, intraperitoneally daily, 20 days): significantly inhibited | Hematoxylin and eosin staining of main organs, signs of toxicity ([3]; mouse, in vivo): did not produce morphological signs of toxicity
